# Source: patent US20110135671A1, “PURINE DERIVATIVES FOR USE IN THE TREATMENT OF ALLERGIC, INFLAMMATORY AND INFECTIOUS DISEASES” (GLAXOSMITHKLINE LLC, priority 2008, published 2011)
# System: Interferon-α
# Experiment: Induction of Interferon-α using cryopreserved human PBMCs
# Assay type: cell-based
# Conditions: PBMC, 24 h, normalised to 1 uM resiquimod, read-out: mean pEC50 for induction of Interferon-α (converted)
# Description: Assay for the Induction of Interferon-α using Cryopreserved Human Peripheral Blood Mononuclear Cells (PBMCs)
# Compounds were dissolved in DMSO. Serial 2-fold dilutions with DMSO were prepared and 0.25 μl dispensed into 384-well clear Greiner polypropylene plates.
# Blood samples of up to 200 ml were obtained from healthy human donors. Whole blood in 25 ml volumes was overlaid onto 15 ml Ficoll gradients in Leucosep tubes, and centrifuged at 1000 g for 20 min. Cells in the band at the plasma/histopaque interface were carefully removed and washed twice with PBS (centrifuged at 400 g for 5 min to harvest). The final pellet was resuspended in freezing medium (90% Heat-inactivated serum, 10% DMSO) to a cell concentration of 4×10^7 cells/ml. The resuspended cells were then cryopreserved (frozen) using a rate controlled freezer, and stored at −140° C. for up to 4 months.
# Incubation and Assay for Interferon-α
# Immediately prior to assay, vials of cryopreserved (frozen) PBMCs were thawed rapidly in a water bath at 37° C. A 1:10 dilution of the cells in trypan blue was prepared and counted. The PBMCs were then diluted in growth media [RPMI 1640 containing 10% fetal calf serum (invitrogen), Penicillin+Streptavidin (Gibco cat. # 25030-024, 1:50), L-Glutamine 2 mM, and 1000 units/ml recombinant human IFN-gamma (Preprotech catalogue #300-02)] to a density of 1×10^6 cells/ml, and 50 ul/well dispensed to 384-well clear Greiner polypropylene plates containing 0.25 μl DMSO or test compound in 0.25 μl DMSO. […] Plates were incubated for 24 h at 37° C. in 5% CO2.
# A multi-isoform immunoassay was used to quantify IFN-α in PBMC supernatants. Rabbit polyclonal antibody against human IFN-α (catalogue number 31101, Stratech Scientific) was diluted 1:10000 in assay buffer (RPMI 1640 containing 10% fetal calf serum, Invitrogen) and 20 μl was added to each well of an MSD (Meso-Scale Discovery) single small-spot 384-well GAR (goat anti-rabbit antibody coated) plate. The plate was incubated for 1 h at room temperature with vigorous shaking. Following three washes with PBS, 20 μl of cell supernatant were added to each well of the plate. The plate was then incubated for 1 h at room temperature with vigorous shaking. A pair of monoclonal antibodies to IFN-α (catalogue numbers 21100 and 21112, Stratech Scientific) were labelled with sulfo-TAG (MSD), diluted 1:1000 in assay buffer and 20 μl added to each well of the plate. The plate was further incubated for 1 h at room temperature with vigorous shaking. Following three washes with PBS, 30 μl of ×2 T buffer (MSD) was added to each well and the plate was read on an MSD Sector 6000 plate reader.
# Data were normalised to internal plate controls of 1 uM resiquimod (n=16) and DMSO (n=16). pEC50 values were derived by 4-parameter curve fit with IRLS in ActivityBase, from 11-point, two-fold serial dilution of test compounds.
compound,measurement,value
"CCCCOc1nc(N)c2[nH]c(=O)n(CCCN3CCN(CC(C)C)CC3)c2n1 [Example 11, 6-Amino-2-(butyloxy)-9-{3-[4-(2-methylpropyl)-1-piperazinyl]propyl}-7,9-dihydro-8H-purin-8-one]",EC50,< 3.16 µM
"CCCCNc1nc(N)c2[nH]c(=O)n(CCCN3CCN(C4CCCC4)CC3)c2n1 [Example 24, 6-Amino-2-(butylamino)-9-[3-(4-cyclopentyl-1-piperazinyl)propyl]-7,9-dihydro-8H-purin-8-one]",EC50,< 3.16 µM
"CCCCNc1nc(N)c2[nH]c(=O)n(CCCN3CCN(CC4CC4)CC3)c2n1 [Example 23, 6-Amino-2-(butylamino)-9-{3-[4-(cyclopropylmethyl)-1-piperazinyl]propyl}-7,9-dihydro-8H-purin-8-one]",EC50,< 3.16 µM
"CCCCNc1nc(N)c2[nH]c(=O)n(CCCCN3CCN(C4CCCC4)CC3)c2n1 [Example 43, 6-Amino-2-(butylamino)-9-[4-(4-cyclopentyl-1-piperazinyl)butyl]-7,9-dihydro-8H-purin-8-one]",EC50,< 3.16 µM
"CCCCOc1nc(N)c2[nH]c(=O)n(CCCCN3CCN(CCCC)CC3)c2n1 [Example 30, 6-Amino-2-(butyloxy)-9-[4-(4-butyl-1-piperazinyl)butyl]-7,9-dihydro-8H-purin-8-one]",EC50,< 3.16 µM
"CCCCOc1nc(N)c2[nH]c(=O)n(CCCN3CCN(CC4CC4)CC3)c2n1 [Example 13, 6-Amino-2-(butyloxy)-9-{3-[4-(cyclopropylmethyl)-1-piperazinyl]propyl}-7,9-dihydro-8H-purin-8-one]",EC50,< 3.16 µM
"CCCCNc1nc(N)c2[nH]c(=O)n(CCCCN3CCN(CCCC)CC3)c2n1 [Example 39, 6-Amino-2-(butylamino)-9-[4-(4-butyl-1-piperazinyl)butyl]-7,9-dihydro-8H-purin-8-one]",EC50,< 3.16 µM
"CCCCNc1nc(N)c2[nH]c(=O)n(CCN3CCN(C(C)C)CC3)c2n1 [Example 4, 6-Amino-2-(butylamino)-9-{2-[4-(1-methylethyl)-1-piperazinyl]ethyl}-7,9-dihydro-8H-purin-8-one]",EC50,< 3.16 µM
"CCCCCN1CCN(CCCCCn2c(=O)[nH]c3c(N)nc(OCCCC)nc32)CC1 [Example 60, 6-Amino-2-(butyloxy)-9-[5-(4-pentyl-1-piperazinyl)pentyl]-7,9-dihydro-8H-purin-8-one]",EC50,< 3.16 µM
"CCCCOc1nc(N)c2[nH]c(=O)n(CCCN3CCN(C(C)(C)C)CC3)c2n1 [Example 12, 6-Amino-2-(butyloxy)-9-{3-[4-(1,1-dimethylethyl)-1-piperazinyl]propyl}-7,9-dihydro-8H-purin-8-one]",EC50,< 3.16 µM
"CCCCNc1nc(N)c2[nH]c(=O)n(CCCN3CCN(C(C)(C)C)CC3)c2n1 [Example 22, 6-Amino-2-(butylamino)-9-{3-[4-(1,1-dimethylethyl)-1-piperazinyl]propyl}-7,9-dihydro-8H-purin-8-one]",EC50,< 3.16 µM
"CC(C)Oc1nc(N)c2[nH]c(=O)n(CCCCCN3CCN(C(C)C)CC3)c2n1 [Example 70, 6-Amino-2-[(1-methylethyl)oxy]-9-{5-[4-(1-methylethyl)-1-piperazinyl]pentyl}-7,9-dihydro-8H-purin-8-one]",EC50,< 3.16 µM
"CCCCOc1nc(N)c2[nH]c(=O)n(CCCCCN3CCN(C4CCCC4)CC3)c2n1 [Example 63, 6-Amino-2-(butyloxy)-9-[5-(4-cyclopentyl-1-piperazinyl)pentyl]-7,9-dihydro-8H-purin-8-one]",EC50,< 3.16 µM
"CCCCOc1nc(N)c2[nH]c(=O)n(CCCCCN3CCN(CC)CC3)c2n1 [Example 47, 6-Amino-2-(butyloxy)-9-[5-(4-ethyl-1-piperazinyl)pentyl]-7,9-dihydro-8H-purin-8-one]",EC50,< 3.16 µM
"CCC[C@H](C)Oc1nc(N)c2[nH]c(=O)n(CCCCCN3CCN(CC)CC3)c2n1 [Example 51, 6-Amino-9-[5-(4-ethyl-1-piperazinyl)pentyl]-2-{[(1S)-1-methylbutyl]oxy}-7,9-dihydro-8H-purin-8-one]",EC50,< 3.16 µM
"CCCCNc1nc(N)c2[nH]c(=O)n(CCCCN3CCN(CC(C)C)CC3)c2n1 [Example 40, 6-Amino-2-(butylamino)-9-{4-[4-(2-methylpropyl)-1-piperazinyl]butyl}-7,9-dihydro-8H-purin-8-one]",EC50,< 3.16 µM
"CCCCNc1nc(N)c2[nH]c(=O)n(CCCN3CCN(CC(C)C)CC3)c2n1 [Example 21, 6-Amino-2-(butylamino)-9-{3-[4-(2-methylpropyl)-1-piperazinyl]propyl}-7,9-dihydro-8H-purin-8-one]",EC50,< 3.16 µM
"CCCCNc1nc(N)c2[nH]c(=O)n(CCCN3CCN(CCC)CC3)c2n1 [Example 18, 6-Amino-2-(butylamino)-9-[3-(4-propyl-1-piperazinyl)propyl]-7,9-dihydro-8H-purin-8-one]",EC50,< 3.16 µM
"CCCC[C@H](C)Oc1nc(N)c2[nH]c(=O)n(CCCCN3CCN(C(C)C)CC3)c2n1 [Example 69, 6-Amino-9-{4-[4-(1-methylethyl)-1-piperazinyl]butyl}-2-{[(1S)-1-methylpentyl]oxy}-7,9-dihydro-8H-purin-8-one]",EC50,< 3.16 µM
"CCCCNc1nc(N)c2[nH]c(=O)n(CCCN3CCN(C4CCCCC4)CC3)c2n1 [Example 25, 6-Amino-2-(butylamino)-9-[3-(4-cyclohexyl-1-piperazinyl)propyl]-7,9-dihydro-8H-purin-8-one]",EC50,< 3.16 µM
"CCCCNc1nc(N)c2[nH]c(=O)n(CCCCN3CCN(CC)CC3)c2n1 [Example 36, 6-Amino-2-(butylamino)-9-[4-(4-ethyl-1-piperazinyl)butyl]-7,9-dihydro-8H-purin-8-one]",EC50,< 3.16 µM
"CCCCOc1nc(N)c2[nH]c(=O)n(CCCN3CCN(C(C)C)CC3)c2n1 [Example 9, 6-Amino-2-(butyloxy)-9-{3-[4-(1-methylethyl)-1-piperazinyl]propyl}-7,9-dihydro-8H-purin-8-one]",EC50,< 3.16 µM
"CCCCOc1nc(N)c2[nH]c(=O)n(CCCCCN3CCN(C4CCCCC4)CC3)c2n1 [Example 64, 6-Amino-2-(butyloxy)-9-[5-(4-cyclohexyl-1-piperazinyl)pentyl]-7,9-dihydro-8H-purin-8-one]",EC50,< 3.16 µM
"CCCCNc1nc(N)c2[nH]c(=O)n(CCCN3CCN(CC)CC3)c2n1 [Example 17, 6-Amino-2-(butylamino)-9-[3-(4-ethyl-1-piperazinyl)propyl]-7,9-dihydro-8H-purin-8-one]",EC50,< 3.16 µM
"CCC[C@H](C)Nc1nc(N)c2[nH]c(=O)n(CCCCN3CCN(C(C)C)CC3)c2n1 [Example 75, 6-Amino-2-{[(1S)-1-methylbutyl]amino}-9-{4-[4-(1-methylethyl)-1-piperazinyl]butyl}-7,9-dihydro-8H-purin-8-one]",EC50,< 3.16 µM
"CCCCOc1nc(N)c2[nH]c(=O)n(CCCN3CCN(CCC)CC3)c2n1 [Example 8, 6-Amino-2-(butyloxy)-9-[3-(4-propyl-1-piperazinyl)propyl]-7,9-dihydro-8H-purin-8-one]",EC50,< 3.16 µM
"CCCCNc1nc(N)c2[nH]c(=O)n(CCCN3CCN(C)CC3)c2n1 [Example 16, 6-Amino-2-(butylamino)-9-[3-(4-methyl-1-piperazinyl)propyl]-7,9-dihydro-8H-purin-8-one]",EC50,< 3.16 µM
"CCCCOc1nc(N)c2[nH]c(=O)n(CCCCN3CCN(C4CCCCC4)CC3)c2n1 [Example 35, 6-Amino-2-(butyloxy)-9-[4-(4-cyclohexyl-1-piperazinyl)butyl]-7,9-dihydro-8H-purin-8-one]",EC50,< 3.16 µM
"CCCCOc1nc(N)c2[nH]c(=O)n(CCCCCCN3CCN(CC)CC3)c2n1 [Example 56, 6-Amino-2-(butyloxy)-9-[6-(4-ethyl-1-piperazinyl)hexyl]-7,9-dihydro-8H-purin-8-one]",EC50,< 3.16 µM
"CCCCOc1nc(N)c2[nH]c(=O)n(CCCCN3CCN(CCC)CC3)c2n1 [Example 28, 6-Amino-2-(butyloxy)-9-[4-(4-propyl-1-piperazinyl)butyl]-7,9-dihydro-8H-purin-8-one]",EC50,< 3.16 µM
"CCCCOc1nc(N)c2[nH]c(=O)n(CCCN3CCN(C4CCCC4)CC3)c2n1 [Example 14, 6-Amino-2-(butyloxy)-9-[3-(4-cyclopentyl-1-piperazinyl)propyl]-7,9-dihydro-8H-purin-8-one]",EC50,< 3.16 µM
"CC(C)N1CCN(CCCCn2c(=O)[nH]c3c(N)nc(OC4CCCCC4)nc32)CC1 [Example 73, 6-Amino-2-(cyclohexyloxy)-9-{4-[4-(1-methylethyl)-1-piperazinyl]butyl}-7,9-dihydro-8H-purin-8-one]",EC50,< 3.16 µM
